Results taken from paper PMC8457666 (Science Advances, 2021).
Residue numbers refer to the chain shown, from its start.

Legend:
WzcCDΔC [1] = molecular target: T1, WzcCDΔC (Escherichia coli, UniProt P76387); test: isothermal titration calorimetry, one-site model; assay type: binding
T1 sequence (P76387 447-704 limits assumed): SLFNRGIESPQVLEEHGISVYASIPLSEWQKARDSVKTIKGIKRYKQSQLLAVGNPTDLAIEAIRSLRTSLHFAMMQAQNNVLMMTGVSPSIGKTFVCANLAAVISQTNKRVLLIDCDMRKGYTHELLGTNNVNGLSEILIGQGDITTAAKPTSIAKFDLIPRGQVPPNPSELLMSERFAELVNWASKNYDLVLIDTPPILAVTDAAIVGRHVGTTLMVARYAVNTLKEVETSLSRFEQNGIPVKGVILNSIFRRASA

WzcCDΔC [2] = molecular target: T2, WzcCDΔC (Escherichia coli, UniProt P76387, K540M); test: isothermal titration calorimetry, one-site model; assay type: binding
T2 sequence (P76387 447-704 K540M limits assumed): T1 sequence (P76387 447-704 limits assumed) with K94M

Nc1ncnc2c1ncn2[C@@H]1O[C@H](COP(=O)(O)OP(=O)(O)O)[C@@H](O)[C@H]1O [ADP]
Kd (WzcCDΔC [1]): 2600 ± 1100 nM | Kd (WzcCDΔC [2]): 500 ± 200 nM
